Data reported in patent US20090221590A1, “SALT OF CD 80 ANTAGONIST” (MEDIGENE LIMITED, priority 2006, published 2009).
In brackets after ≈: the same amount, converted by molar mass.

Experiment: Solubility Assay (saturation, shaker 24 hours, supernatant analysed by HPLC)
Settings: for Solubility (mg/ml) in ethanol: solvent ethanol; for Solubility (mg/ml) in ethanol / Solubility (mg/ml) in water: 25 deg C./60% relative humidity, 24 hours; for Solubility (mg/ml) in water: solvent water; for solubility at 24 h: 25 °C, thermodynamic from solid
Experimental: 10 mg of the test compound was weighed into a vial, and 1 ml of solvent was added. If the sample dissolved immediately, as evidenced by a formation of a clear solution, more of the test material was added and the vial sonicated for 15 mins. This procedure was repeated until no more test compound could be dissolved, as evidenced by formation of a suspension. The vial containing the suspension was then was sonicated for 15 mins, and placed on a shaker at 25 deg C./60% relative humidity for 24 hours. On removal from the shaker, the sample was centrifuged and the supernatant analysed by HPLC.

| Molecule | Solubility (mg/ml) in ethanol | Solubility (mg/ml) in water | solubility at 24 h (ethanol, organic solvent or mixture) | solubility at 24 h (water) | aqueous solubility (in words) (water, qualitative statement) |
| --- | --- | --- | --- | --- | --- |
| [Mg] [Magnesium] | <5 mg/mL | <5 mg/mL |  |  |  |
| O=C(NCC(F)F)c1ccc(-n2[nH]c3c(nnc4c(F)cccc43)c2=O)cc1 [None (free acid), 4-(6-fluoro-3-oxo-1,3-dihydro-pyrazolo[4,3-c]cinnolin-2-yl)-N-(2,2-difluoro-ethyl)-benzamide] |  |  | 2100 µg/mL (≈ 5.42 mM) | < 500 µg/mL | poorly soluble in water |
| [K+] [Potassium] | <5 mg/mL | <5 mg/mL |  |  |  |
| Sodium | 7.1 mg/mL | <5 mg/mL |  |  |  |
